Measurements taken from patent US20080033041A1, “USE OF PHENYLETHANOLAMINOTETRALINES FOR PREPARING ANXIOLYTIC DRUGS” (SANOFI-AVENTIS, priority 2004, published 2008).

Key:
[1] = test system: Sprague-Dawley and Wistar rats; assay: Punished Drinking test; assay type: in vivo, rat; conditions: 10 mg/kg i.p., 30 minutes after injection, 5-minute period, control 10
Protocol: 4) The Punished Drinking Test (Griebel et al., (2002), ibid.) Male Sprague-Dawley and Wistar rats (Iffa Credo, L'Arbresle, and Charles River, Saint-Aubin-lès-Elbeuf, France), weighing 180 to 250 g were used. Experiments were performed 30 minutes after i.p. injection of 10 mg/kg of the drug or vehicle. The procedure was a modification of the technique described by Vogel et al., Psychopharmacologia, (1971), 21, p. 1-7. At the beginning of the experiment, rats, deprived of water but not of food for 48 hours prior to testing, were placed in cages (32×25×30 cm) with a stainless steel grid floor. Each cage was placed in sound-attenuated boxes that were well ventilated and contained a drinking tube connected to an external 50 mL burette filled with tap water. Trials were started only after the animal's tongue entered in contact with the drinking tube for the first time. An electric shock (0.6 mA/500 ms) was delivered to the tongue after every twenty licks. The number of shocks was recorded automatically during a 5-minute period. Subsequent comparisons between treatment groups and control were carried out using Dunnett's t-test.

[2] = test system: Mongolian gerbils; assay: Social Interaction test; assay type: in vivo, gerbil; conditions: 10 mg/kg p.o., 1 hour after administration, control 30 seconds
Protocol: 5) The Social Interaction Test (Salomé et al., Sanofi-Synthelabo Research, CNS Department, Bagneux, France, ibid.) Male Mongolian gerbils (7-week old, 50-60 g, CERJ, France) were used. Experiments were performed 1 hour after per os (p.o.) administration of 10 mg/kg of the drug or vehicle. The procedure was based on that described initially by File et al., Brain Res., (2001), 888, p. 311-313. Testing lasting two days. On day 1, gerbils were placed individually in a plastic box (30×30×20 cm) under high light conditions (300 lux) for a 10-minute free-exploration period to familiarize with the apparatus. Twenty-four hours later, two gerbils of the same weight but unfamiliar to each other were placed together in the box they had previously explored for a 4 minute 30 seconds observation period. Interaction time (sniffing, chasing, grooming the partner) was recorded manually for each pair of gerbils. Locomotor activity (distance travelled in centimetres) was measured with an automated tracking system (Ethovision, Noldus).

[3] = test system: rats of the Wistar strain; assay: Elevated Plus Maze test; assay type: in vivo, rat; conditions: 10 mg/kg i.p., 5 minutes observation
Excerpt: 2) The Elevated Plus Maze Test (Pellow S. et al., Journal of Neuroscience Methods, (1985), 14(3), p.149-67) The animals, their preparation and the i.p. dosage of compound to be tested are the same as those described in the Novelty Induced Grooming test. The apparatus consisted of a plus-shaped maze, elevated of 50 centimetres from the floor, with two opposite open arms (50×10 cm) crossed at right angles by two arms of the same dimensions, but enclosed by 40-centimetre high walls with an open roof. In addition, a 1-centimetre high edge made of plexiglas surrounded the open arms to avoid falls. Illumination measured at the centre of the maze was 40 lux. After treatment, the animal was placed at the centre of the plus maze with its nose in the direction of one of the closed arms, and observed for 5 minutes, according to the following parameters: number of entries in the open and closed arms (this parameter can also be expressed by means of percentage of entries in the open arms), and time of presence in each of them (this parameter can also be expressed by means of percentage of time stayed in the open arms. The time of presence measures the time spent by the animal in the open and closed arms. The animals were divided into four groups with 7 animals per group.

[4] = test system: rats of the Wistar strain; assay: Novelty Induced Grooming Test; assay type: in vivo, rat; conditions: 10 mg/kg i.p., 30 min before test, 30-minute session, control 37 (±3.61)
Protocol: 1) The Novelty Induced Grooming Test
(Gipsen et al., (1975), ibid.)
Male rats of the Wistar strain (purchased from Morini, Italy) weighing from 200 to 220 g were used throughout this test. All animals were gently manipulated by experienced facilities' handlers, avoiding any environmental or physical stress. Compounds according to the invention to be tested were injected intraperitoneally (i.p.) to a group of rats at a dosage 10 mg/kg. Control animals received i.p. the same volume of the vehicle (i.e, physiological saline). […]
Rats were placed individually into plexiglas boxes (24×12×24 cm) in a low noise room. After a minute of adaptation, the behaviour of the rats was sampled every 15 seconds, and the occurrence of grooming was recorded in a session of 30 minutes. The occurrence of the following single elements of grooming was scored as grooming: washing (i.e., vibrating movements of the fore paws in front of the snout and licking of the same paws leading to a series of strokes along the snout and semicircular movements over the top of the head), scratching (that is scratching of the body by one of the limbs), licking (that is licking of the body fur, limbs and tail), and genital grooming (that is licking of genital area). Grooming behaviour of all animals was recorded on a tape using a video-camera (Hitachi Videocam) and then replayed and scored by two independent observers. […]

[5] = test system: OF1 mice; assay: Mouse Defense test Battery; assay type: in vivo; conditions: 1 hour after administration
Protocol: 6) The Mouse Defense test Battery (Griebel et al., (2002), ibid.) Male OF1 mice weighing 17 to 32 g were supplied by Charles River, Iffa Credo or Janvier (Le Genest, France). Experiments were performed 1 hour after p.o. administration of 0.3 mg/kg or 3 mg/kg of the drug or vehicle. The test was conducted in an oval runway as described (Griebel et al., 1997), 23, p. 19-31). Tested mice were submitted to a 3-minute familiarization period sixty minutes after p.o. administration of compound A. (a) The rat avoidance test/flight: Immediately after the 3-minute familiarization period, the experimenter introduced a hand-held dead rat (killed by CO2 inhalation just before the beginning of the experiment) five times at one end of the runway. The following parameter was recorded: avoidance distance (cm). (b) Risk Assessment/Chase Test: The rat was then brought up to the subject at a speed of approximately 2 m/s. A constant distance of 2 meters separated the rat and the subject when the former was introduced in the runway. The following parameter was recorded: number of stops (pauses in movement). The rat was removed after the chase was completed. (c) Defensive Aggression/Straight Alley: By the closing of two doors (60 cm distant from each other), the runway was then converted to a straight alley in which the subject was constrained. The experimenter brought the rat up to contact the subject in the straight alley. Approaches were directed quickly (within 1 second) to the subject's head. For each such contact, bites by the subjects were recorded.

[6] = test system: rats of the Wistar strain; assay: Ultrasonic Vocalizations (USVs) test; assay type: in vivo, rat; conditions: 10 mg/kg i.p.
Excerpt: 3) The Ultrasonic Vocalizations (USVs) Test
(Molewijk et al., Psychopharmacology, (1996),128, p. 31-38)
The animals, their preparation and the i.p. dosage of compound to be tested are the same as those described in the Novelty Induced Grooming test.
This test consists of two different sessions: training and testing sessions. In the training procedure, all animals were trained for 2 days prior to testing. Training consisted of placing the animal in a standard operant chamber (ENV-018M, Med Associates, Georgia, Vt.) where shock could be delivered from a programmable shocker (Model ENV-413, Med Associates) and where it is equipped with an ultrasonic detector (Mini-3 Bat Detector, Ultra Sound Advice, UK). On each of two consecutive days, all the animals received 20 shocks (1 mA, 4 seconds) separated by a random interval that averaged 60 seconds and ranging from 30 to 90 seconds. Each shock was administered concurrently with a 4-Watt light and an acoustic tone (85 dB, 4 s). The chamber was dark between each shock presentation.
On the day following training, animals were administered 10 mg/kg of compound A and placed in the operant apparatus for testing. […] USVs (18-22 KHz) were recorded over the intertrial interval and were expressed as a sum of total time spent vocalizing for each animal. […]

CCOC(=O)COc1ccc2c(c1)C[C@@H](NC[C@H](O)c1cccc(Cl)c1)CC2.Cl [compound A, ethyl [(7S) 7-[(2R) 2-(3-chlorophenyl)-2-hydroxyethylamino]-5,6,7,8-tetrahydronaphthalen-2yloxy]-acetate hydrochloride]
Number of shocks (punished responding) [1]: 30 shocks
Social interaction time [2]: 70 s
mean number of entries into the open arms ([3]; control 4): 7
percentage of time in the open arms ([3]; control 32%): 42%
percentage of entries into the open arms ([3]; control 40%): 50%
mean time spent in the open arms ([3]; control 78 seconds): 98 s
Number of grooming episodes [4]: 17.71 (±5.91)
Number of bites (defensive aggression/straight alley) ([5]; 0.3 mg/kg p.o., control about 2.75 times): about 1.3 times
Number of stops (risk assessment/chase test) ([5]; 3 mg/kg p.o., control 9 stops): 6 stops
Avoidance distance (rat avoidance test/flight) ([5]; 3 mg/kg p.o., control 120 cm): 75 cm
decrease of conditioned USVs versus control [6]: ~50%
Conditioned USVs duration (total time spent vocalizing) ([6]; control more than 210 seconds): < 120 s
